Measurements taken from article PMC4051630, “A Comparison of Protein Kinases Inhibitor Screening Methods Using Both Enzymatic Activity and Binding Affinity Determination” (PLoS ONE, 2014).

Assays:
Assay in all cases: Differential Scanning Fluorimetry (DSF) Tm shift
Assay type in all cases: binding
FES Catalytic Domain = target: T1, FES Catalytic Domain (Homo sapiens, UniProt P07332); settings: 2 µM protein, 10 µM inhibitor, average of 3 experiments, each in duplicate
T1 construct: For all of them, we expressed and purified the catalytic domain separately; His-tag; made in house; host or cells: Escherichia coli
T1 sequence (P07332 561-822 limits assumed): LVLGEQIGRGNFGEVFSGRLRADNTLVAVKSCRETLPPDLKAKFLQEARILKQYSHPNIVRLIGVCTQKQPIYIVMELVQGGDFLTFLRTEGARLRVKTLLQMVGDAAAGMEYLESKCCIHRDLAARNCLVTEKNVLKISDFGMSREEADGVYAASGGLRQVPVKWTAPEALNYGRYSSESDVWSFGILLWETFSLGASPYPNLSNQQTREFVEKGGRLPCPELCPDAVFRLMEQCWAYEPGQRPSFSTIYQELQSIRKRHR

DMPK Catalytic Domain = target: T2, DMPK Catalytic Domain (Homo sapiens, UniProt Q09013); settings: 2 µM protein, 10 µM inhibitor, average of 3 experiments, each in duplicate
T2 construct: For all of them, we expressed and purified the catalytic domain separately; His-tag; made in house; host or cells: Escherichia coli
T2 sequence (Q09013 71-339 limits assumed): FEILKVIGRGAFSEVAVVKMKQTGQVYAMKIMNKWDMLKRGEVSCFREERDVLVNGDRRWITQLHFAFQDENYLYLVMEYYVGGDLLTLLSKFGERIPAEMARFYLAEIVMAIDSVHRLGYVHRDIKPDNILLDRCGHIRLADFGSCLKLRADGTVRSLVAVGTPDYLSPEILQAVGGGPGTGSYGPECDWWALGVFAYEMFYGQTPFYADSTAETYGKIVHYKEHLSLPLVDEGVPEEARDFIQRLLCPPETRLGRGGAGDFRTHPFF

[1] = target: T3, PAK4 Catalytic Domain+PBD (Homo sapiens, UniProt O96013); settings: 2 µM protein, 10 µM inhibitor, average of 3 experiments, each in duplicate
T3 construct: for 8, we also made a longer version containing one or more additional domains; His-tag; made in house; host or cells: Escherichia coli
T3 sequence (O96013 whole entry, the tested form may be a part): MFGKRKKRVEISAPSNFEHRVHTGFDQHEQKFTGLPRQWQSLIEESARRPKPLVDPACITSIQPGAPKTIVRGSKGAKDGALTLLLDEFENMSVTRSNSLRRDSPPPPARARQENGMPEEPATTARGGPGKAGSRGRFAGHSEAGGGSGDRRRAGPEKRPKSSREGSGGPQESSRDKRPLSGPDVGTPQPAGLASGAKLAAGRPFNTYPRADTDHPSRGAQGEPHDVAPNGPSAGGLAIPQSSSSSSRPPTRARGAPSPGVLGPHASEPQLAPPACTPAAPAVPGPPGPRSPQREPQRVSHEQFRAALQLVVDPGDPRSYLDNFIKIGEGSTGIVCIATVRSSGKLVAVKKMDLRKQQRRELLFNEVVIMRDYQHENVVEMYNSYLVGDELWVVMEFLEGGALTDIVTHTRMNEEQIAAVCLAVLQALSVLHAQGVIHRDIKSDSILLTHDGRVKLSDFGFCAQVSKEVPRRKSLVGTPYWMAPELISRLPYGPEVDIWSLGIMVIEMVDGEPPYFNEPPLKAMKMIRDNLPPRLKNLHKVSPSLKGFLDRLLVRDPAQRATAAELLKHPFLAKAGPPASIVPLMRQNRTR

AKT3 Catalytic Domain = target: T4, AKT3 Catalytic Domain (Homo sapiens, UniProt Q9Y243); settings: 2 µM protein, 10 µM inhibitor, average of 3 experiments, each in duplicate
T4 construct: AKT3 (Q9Y243); CD; His-tag; made in house; host or cells: Escherichia coli
T4 sequence (Q9Y243 122-479): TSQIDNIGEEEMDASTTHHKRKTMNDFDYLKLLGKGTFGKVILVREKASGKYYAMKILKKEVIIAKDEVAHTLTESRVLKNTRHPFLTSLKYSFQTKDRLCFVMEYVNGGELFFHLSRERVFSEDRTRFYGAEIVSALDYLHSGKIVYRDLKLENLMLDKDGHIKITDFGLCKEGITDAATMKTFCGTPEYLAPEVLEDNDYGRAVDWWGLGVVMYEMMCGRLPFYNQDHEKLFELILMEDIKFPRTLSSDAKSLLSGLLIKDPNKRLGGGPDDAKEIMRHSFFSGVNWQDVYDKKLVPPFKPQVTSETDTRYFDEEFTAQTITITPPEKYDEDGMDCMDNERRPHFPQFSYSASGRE

FAK2 Catalytic Domain = target: T5, FAK2 Catalytic Domain (Homo sapiens, UniProt Q14289); settings: 2 µM protein, 10 µM inhibitor, average of 3 experiments, each in duplicate
T5 construct: For all of them, we expressed and purified the catalytic domain separately; His-tag; made in house; host or cells: Escherichia coli
T5 sequence (Q14289 425-683 limits assumed): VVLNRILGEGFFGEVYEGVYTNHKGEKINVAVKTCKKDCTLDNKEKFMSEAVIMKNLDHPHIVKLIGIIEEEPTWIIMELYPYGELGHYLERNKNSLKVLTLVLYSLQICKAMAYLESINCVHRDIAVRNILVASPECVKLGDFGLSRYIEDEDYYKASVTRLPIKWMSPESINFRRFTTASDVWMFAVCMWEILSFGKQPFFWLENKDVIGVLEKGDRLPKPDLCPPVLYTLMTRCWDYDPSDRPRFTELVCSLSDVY

STK3 Catalytic Domain = target: T6, STK3 Catalytic Domain (Homo sapiens, UniProt Q13188); settings: 2 µM protein, 10 µM inhibitor, average of 3 experiments, each in duplicate
T6 construct: For all of them, we expressed and purified the catalytic domain separately; His-tag; made in house; host or cells: Escherichia coli
T6 sequence (Q13188 27-278 limits assumed): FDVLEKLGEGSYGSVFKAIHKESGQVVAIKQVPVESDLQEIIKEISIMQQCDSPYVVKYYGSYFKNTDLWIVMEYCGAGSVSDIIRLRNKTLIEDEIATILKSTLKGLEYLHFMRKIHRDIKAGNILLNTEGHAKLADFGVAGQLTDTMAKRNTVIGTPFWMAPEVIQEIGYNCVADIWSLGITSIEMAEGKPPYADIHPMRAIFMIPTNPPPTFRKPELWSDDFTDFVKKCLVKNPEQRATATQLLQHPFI

PAK4 Catalytic Domain = target: T7, PAK4 Catalytic Domain (Homo sapiens, UniProt O96013); settings: 2 µM protein, 10 µM inhibitor, average of 3 experiments, each in duplicate
T7 construct: For all of them, we expressed and purified the catalytic domain separately; His-tag; made in house; host or cells: Escherichia coli
T7 sequence (O96013 321-572 limits assumed): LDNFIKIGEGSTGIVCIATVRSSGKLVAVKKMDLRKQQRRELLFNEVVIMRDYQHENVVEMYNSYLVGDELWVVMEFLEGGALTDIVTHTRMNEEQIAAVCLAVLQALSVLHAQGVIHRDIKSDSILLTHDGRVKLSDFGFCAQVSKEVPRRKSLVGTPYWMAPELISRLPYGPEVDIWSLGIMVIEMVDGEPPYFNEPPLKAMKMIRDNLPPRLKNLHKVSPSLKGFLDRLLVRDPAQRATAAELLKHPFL

FES Catalytic Domain+SH2 = target: T8, FES Catalytic Domain+SH2 (Homo sapiens, UniProt P07332); settings: 2 µM protein, 10 µM inhibitor, average of 3 experiments, each in duplicate
T8 construct: for 8, we also made a longer version containing one or more additional domains; His-tag; made in house; host or cells: Escherichia coli
T8 sequence (P07332 448-822 limits assumed): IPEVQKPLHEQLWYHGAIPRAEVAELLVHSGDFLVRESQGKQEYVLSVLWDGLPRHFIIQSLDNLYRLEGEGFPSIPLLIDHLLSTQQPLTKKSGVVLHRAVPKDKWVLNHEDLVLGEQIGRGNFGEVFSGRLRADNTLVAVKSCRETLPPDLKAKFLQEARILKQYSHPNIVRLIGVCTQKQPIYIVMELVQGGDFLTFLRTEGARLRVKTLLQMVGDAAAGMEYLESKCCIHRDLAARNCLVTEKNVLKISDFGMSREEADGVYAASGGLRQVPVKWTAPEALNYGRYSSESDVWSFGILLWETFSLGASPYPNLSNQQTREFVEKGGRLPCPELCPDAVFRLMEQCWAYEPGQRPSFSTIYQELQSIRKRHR

CDK2 + Cyclin A = target: T9, CDK2 + Cyclin A (Homo sapiens, UniProt P24941); settings: CDK2 + Cyclin A; 2 µM protein, 10 µM inhibitor; average of 3 experiments, each in duplicate
T9 construct: CDK2 (P24941); 1–299; His-tag; made in house; host or cells: Escherichia coli

CHK2 Catalytic Domain = target: T10, CHK2 Catalytic Domain (Homo sapiens, UniProt O96017); settings: 2 µM protein, 10 µM inhibitor, average of 3 experiments, each in duplicate
T10 construct: For all of them, we expressed and purified the catalytic domain separately; His-tag; made in house; host or cells: Escherichia coli
T10 sequence (O96017 220-486 limits assumed): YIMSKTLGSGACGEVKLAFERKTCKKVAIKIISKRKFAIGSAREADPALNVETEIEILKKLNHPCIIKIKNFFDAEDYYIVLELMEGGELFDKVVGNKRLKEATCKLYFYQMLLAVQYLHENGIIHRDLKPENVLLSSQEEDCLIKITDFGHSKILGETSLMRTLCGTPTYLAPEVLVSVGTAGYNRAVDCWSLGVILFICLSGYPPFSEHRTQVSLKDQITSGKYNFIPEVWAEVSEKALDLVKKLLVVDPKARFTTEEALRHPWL

[2] = target: T11, STK3 Catalytic domain+SARAH (Homo sapiens, UniProt Q13188); settings: 2 µM protein, 10 µM inhibitor, average of 3 experiments, each in duplicate
T11 construct: for 8, we also made a longer version containing one or more additional domains; His-tag; made in house; host or cells: Escherichia coli
T11 sequence (Q13188 1-491): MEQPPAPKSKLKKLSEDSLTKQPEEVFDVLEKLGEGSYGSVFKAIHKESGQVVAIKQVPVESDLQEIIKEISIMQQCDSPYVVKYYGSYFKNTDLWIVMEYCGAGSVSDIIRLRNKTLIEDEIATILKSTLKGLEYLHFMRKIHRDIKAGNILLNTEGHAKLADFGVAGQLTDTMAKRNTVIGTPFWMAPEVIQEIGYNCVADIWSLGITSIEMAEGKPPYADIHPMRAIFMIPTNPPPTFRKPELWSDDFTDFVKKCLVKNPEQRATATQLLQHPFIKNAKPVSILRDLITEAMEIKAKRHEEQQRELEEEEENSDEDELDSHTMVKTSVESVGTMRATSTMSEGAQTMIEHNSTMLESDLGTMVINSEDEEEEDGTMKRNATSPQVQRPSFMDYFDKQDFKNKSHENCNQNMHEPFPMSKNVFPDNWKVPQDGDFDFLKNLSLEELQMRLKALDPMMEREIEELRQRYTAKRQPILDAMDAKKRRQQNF

PAK7 Catalytic Domain = target: T12, PAK7 Catalytic Domain (Homo sapiens, UniProt Q9P286); settings: 2 µM protein, 10 µM inhibitor, average of 3 experiments, each in duplicate
T12 construct: For all of them, we expressed and purified the catalytic domain separately; His-tag; made in house; host or cells: Escherichia coli
T12 sequence (Q9P286 449-700 limits assumed): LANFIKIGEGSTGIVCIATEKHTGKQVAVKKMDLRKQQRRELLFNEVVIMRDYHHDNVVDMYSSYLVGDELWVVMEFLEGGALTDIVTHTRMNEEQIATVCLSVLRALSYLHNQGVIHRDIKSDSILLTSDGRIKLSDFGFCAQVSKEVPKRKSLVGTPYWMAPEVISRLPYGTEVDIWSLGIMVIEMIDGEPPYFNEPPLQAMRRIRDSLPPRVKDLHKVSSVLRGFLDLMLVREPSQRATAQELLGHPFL

[3] = target: SRC Catalytic Domain+SH2+SH3 (Homo sapiens, UniProt P12931); settings: 2 µM protein, 10 µM inhibitor, average of 3 experiments, each in duplicate
Chain of SRC Catalytic Domain+SH2+SH3 (P12931 84-523 limits assumed): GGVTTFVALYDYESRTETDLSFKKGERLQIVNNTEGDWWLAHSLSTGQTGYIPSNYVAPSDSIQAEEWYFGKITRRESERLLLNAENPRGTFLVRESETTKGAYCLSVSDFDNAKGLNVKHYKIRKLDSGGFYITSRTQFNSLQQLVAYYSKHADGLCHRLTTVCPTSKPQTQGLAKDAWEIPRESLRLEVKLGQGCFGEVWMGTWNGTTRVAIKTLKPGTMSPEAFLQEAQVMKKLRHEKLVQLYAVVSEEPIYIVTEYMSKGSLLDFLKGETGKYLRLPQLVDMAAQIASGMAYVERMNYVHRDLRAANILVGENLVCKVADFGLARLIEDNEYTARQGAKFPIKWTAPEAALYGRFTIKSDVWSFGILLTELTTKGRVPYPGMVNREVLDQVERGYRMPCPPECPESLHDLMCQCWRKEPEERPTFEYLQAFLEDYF

SRC Catalytic Domain = SRC Catalytic Domain (Homo sapiens, UniProt P12931); set-up: For all of them, we expressed and purified the catalytic domain separately; His-tag; made in house; host or cells: Escherichia coli; settings: 2 µM protein, 10 µM inhibitor, average of 3 experiments, each in duplicate
Chain of SRC Catalytic Domain (P12931 270-523 limits assumed): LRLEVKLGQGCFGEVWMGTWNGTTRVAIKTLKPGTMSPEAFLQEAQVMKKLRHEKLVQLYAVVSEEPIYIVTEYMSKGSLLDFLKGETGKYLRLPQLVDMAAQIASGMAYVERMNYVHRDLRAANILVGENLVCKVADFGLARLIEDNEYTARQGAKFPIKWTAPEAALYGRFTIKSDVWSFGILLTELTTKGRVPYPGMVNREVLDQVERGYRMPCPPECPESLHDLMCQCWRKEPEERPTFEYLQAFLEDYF

CDK2 + Cyclin E = target: T13, CDK2 + Cyclin E (Homo sapiens, UniProt P24941); settings: CDK2 + Cyclin E; 2 µM protein, 10 µM inhibitor; average of 3 experiments, each in duplicate
T13 construct: CDK2 (P24941); 1–299; His-tag; made in house; host or cells: Escherichia coli

Row | Melting temperature (Tm) shift (FES Catalytic Domain) [degrees Celcius] | Melting temperature (Tm) shift (DMPK Catalytic Domain) [degrees Celcius] | Melting temperature (Tm) shift [1] [degrees Celcius] | Melting temperature (Tm) shift (AKT3 Catalytic Domain) [degrees Celcius] | Melting temperature (Tm) shift (FAK2 Catalytic Domain) [degrees Celcius] | Melting temperature (Tm) shift (STK3 Catalytic Domain) [degrees Celcius] | Melting temperature (Tm) shift (PAK4 Catalytic Domain) [degrees Celcius] | Melting temperature (Tm) shift (FES Catalytic Domain+SH2) [degrees Celcius] | Melting temperature (Tm) shift (CDK2 + Cyclin A) [degrees Celcius] | Melting temperature (Tm) shift (CHK2 Catalytic Domain) [degrees Celcius] | Melting temperature (Tm) shift [2] [degrees Celcius] | Melting temperature (Tm) shift (PAK7 Catalytic Domain) [degrees Celcius] | Melting temperature (Tm) shift [3] [degrees Celcius] | Melting temperature (Tm) shift (SRC Catalytic Domain) [degrees Celcius] | Melting temperature (Tm) shift (CDK2 + Cyclin E) [degrees Celcius] | SMILES
1 | 0.2 | 0.9 | 1.1 | 0.1 | 0.2 | 0.1 | 0.8 | 0.3 | 0.2 | 0.4 | 0.4 | 0.0 | 0.0 | 0.2 |  | O=C(Nc1cccc(Nc2nccc(Nc3cccc(C(F)(F)F)c3)n2)c1)C1CC1 [Aurora Kinase Inhibitor III]
2 | 0.1 | 0.1 | 0.1 | 0.1 | 0.3 | 0.9 |  | 0.2 | 0.1 | 7.0 | 0.4 |  | 0.4 | 0.7 |  | COc1cc2ncnc(Nc3ccc(NC(=O)c4ccccc4)cc3)c2cc1OC [Aurora Kinase Inhibitor II]
3 | 1.0 | 0.5 | 0.8 | 0.2 | 0.8 | 3.7 | 3.0 | 0.2 | 0.3 | 1.9 | 0.9 | 2.0 | 1.6 | 1.3 |  | Cc1cc(Nc2nc(-c3ccccc3)nc3ccccc23)n[nH]1 [GSK-3 Inhibitor XIII]
4 |  | 0.3 | 1.3 |  | 0.1 | 0.3 | 0.9 | 0.5 | 0.2 | 2.5 | 0.5 |  | 0.1 | 0.0 | 0.2 | O=C1NC(=O)C(=Cc2ccc(-c3ccc(F)cc3O)o2)S1 [PI 3-Kγ/CKII Inhibitor]
5 | 0.4 | 1.6 |  |  |  | 0.3 |  |  | 0.5 | 2.0 | 1.7 | 0.0 |  | 0.1 | 0.0 | O=C1NC(=O)C(c2cn(CCCn3ccnc3)c3ccccc23)=C1Nc1ccccc1 [PKCb Inhibitor]
6 | 1.0 | 4.8 | 1.6 | 1.6 | 0.5 | 1.8 | 1.5 | 0.8 |  | 6.6 | 2.9 | 0.9 | 0.0 | 0.2 |  | CS(=O)(=O)O.Cn1cc(C2=C(c3cn(CCCSC(=N)N)c4ccccc34)C(=O)NC2=O)c2ccccc21 [Ro-31-8220]
7 | 0.1 | 0.7 |  |  | 0.6 | 0.3 |  | 0.1 | 0.0 | 3.0 | 0.1 | 0.0 | 1.6 | 2.1 | 0.2 | COc1cc2ncnc(Nc3ccc(Oc4ccccc4)cc3)c2cc1OC [Src Kinase Inhibitor I]
8 | 0.1 | 0.4 | 0.1 |  | 0.4 | 0.3 | 0.0 | 0.1 | 0.1 | 10.6 | 0.6 | 0.0 | 0.7 | 0.5 |  | COc1cc2ncnc(Nc3ccc(Cl)cc3Cl)c2cc1OC [Ste11 MAPKKK Activation Inhibitor]

Row | SMILES | Melting temperature (Tm) shift (FES Catalytic Domain) [degrees Celcius] | Melting temperature (Tm) shift (DMPK Catalytic Domain) [degrees Celcius] | Melting temperature (Tm) shift [1] [degrees Celcius] | Melting temperature (Tm) shift (AKT3 Catalytic Domain) [degrees Celcius] | Melting temperature (Tm) shift (FAK2 Catalytic Domain) [degrees Celcius] | Melting temperature (Tm) shift (STK3 Catalytic Domain) [degrees Celcius] | Melting temperature (Tm) shift (PAK4 Catalytic Domain) [degrees Celcius] | Melting temperature (Tm) shift (FES Catalytic Domain+SH2) [degrees Celcius] | Melting temperature (Tm) shift (CDK2 + Cyclin A) [degrees Celcius] | Melting temperature (Tm) shift (CHK2 Catalytic Domain) [degrees Celcius] | Melting temperature (Tm) shift [2] [degrees Celcius] | Melting temperature (Tm) shift (PAK7 Catalytic Domain) [degrees Celcius] | Melting temperature (Tm) shift [3] [degrees Celcius] | Melting temperature (Tm) shift (SRC Catalytic Domain) [degrees Celcius] | Melting temperature (Tm) shift (CDK2 + Cyclin E) [degrees Celcius]
9 | CN[C@@H]1C[C@H]2O[C@@](C)([C@@H]1OC)n1c3ccccc3c3c4c(c5c6ccccc6n2c5c31)C(=O)N[C@@H]4O [UCN-01] | 5.2 | 5.9 | 6.8 | 3.2 | 5.9 | 7.6 | 6.2 | 1.3 |  | 1.7 | 12.7 | 7.4 | 1.2 | 0.4 | 
